{"source": "PubChem BioAssay (NCI)", "experiment_in_all_cases": "NCI anticancer screen, dose series, 48 h", "key": {"UACC-62 melanoma": {"test_system": "UACC-62 melanoma"}, "LOX IMVI melanoma": {"test_system": "LOX IMVI melanoma"}, "UACC-257 melanoma": {"test_system": "UACC-257 melanoma"}, "A498 renal": {"test_system": "A498 renal"}, "COLO 205 colon": {"test_system": "COLO 205 colon"}, "SR leukemia": {"test_system": "SR leukemia"}, "SF-268 CNS": {"test_system": "SF-268 CNS"}, "NCI/ADR-RES ovarian": {"test_system": "NCI/ADR-RES ovarian"}}, "note": "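Dose response: 5 concentrations. Exposure: 48 h. Format: 96-well plates. Endpoint: linear interpolation; highest concentration if not reached. The concentration for 50% growth inhibition is given as GI50. At the TGI there is no net growth.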", "data": [{"smiles": "C=C[C@]1(C)C=C2C(=O)[C@@]3(O)OC(=O)[C@@]4(CCCC(C)(C)[C@H]34)[C@@]2(O)CC1", "values": [{"measurement": "GI50", "setting": "UACC-62 melanoma", "result": 1.37, "unit": "µM"}, {"measurement": "TGI", "setting": "UACC-62 melanoma", "result": 2.92, "unit": "µM"}, {"measurement": "GI50", "setting": "LOX IMVI melanoma", "result": 1.72, "unit": "µM"}, {"measurement": "TGI", "setting": "LOX IMVI melanoma", "result": 3.24, "unit": "µM"}, {"measurement": "GI50", "setting": "UACC-257 melanoma", "result": 1.33, "unit": "µM"}, {"measurement": "TGI", "setting": "UACC-257 melanoma", "result": 2.91, "unit": "µM"}, {"measurement": "GI50", "setting": "A498 renal", "result": 1.51, "unit": "µM"}, {"measurement": "TGI", "setting": "A498 renal", "result": 3.6, "unit": "µM"}, {"measurement": "GI50", "setting": "COLO 205 colon", "result": 1.61, "unit": "µM"}, {"measurement": "TGI", "setting": "COLO 205 colon", "result": 2.98, "unit": "µM"}, {"measurement": "GI50", "setting": "SR leukemia", "result": 1.03, "unit": "µM"}, {"measurement": "TGI", "setting": "SR leukemia", "result": 8.5, "unit": "µM"}, {"measurement": "GI50", "setting": "SF-268 CNS", "result": 1.89, "unit": "µM"}, {"measurement": "TGI", "setting": "SF-268 CNS", "result": 4.69, "unit": "µM"}, {"measurement": "GI50", "setting": "NCI/ADR-RES ovarian", "result": 2.89, "unit": "µM"}, {"measurement": "TGI", "setting": "NCI/ADR-RES ovarian", "result": "> 100", "unit": "µM"}]}, {"smiles": "C/C(=C\\c1ccn(-c2ccc(N)cc2)n1)[C@@H]1C[C@@H]2O[C@]2(C)CCC[C@H](C)[C@H](O)[C@@H](C)C(=O)C(C)(C)[C@@H](O)CC(=O)O1", "values": [{"measurement": "GI50", "setting": "UACC-62 melanoma", "result": 0.157, "unit": "µM"}, {"measurement": "TGI", "setting": "UACC-62 melanoma", "result": "> 50", "unit": "µM"}, {"measurement": "GI50", "setting": "LOX IMVI melanoma", "result": 0.0273, "unit": "µM"}, {"measurement": "TGI", "setting": "LOX IMVI melanoma", "result": "> 50", "unit": "µM"}, {"measurement": "GI50", "setting": "A498 renal", "result": 0.102, "unit": "µM"}, {"measurement": "TGI", "setting": "A498 renal", "result": 3.66, "unit": "µM"}, {"measurement": "GI50", "setting": "COLO 205 colon", "result": 0.0175, "unit": "µM"}, {"measurement": "TGI", "setting": "COLO 205 colon", "result": 0.634, "unit": "µM"}, {"measurement": "GI50", "setting": "SR leukemia", "result": 0.027, "unit": "µM"}, {"measurement": "TGI", "setting": "SR leukemia", "result": "> 50", "unit": "µM"}, {"measurement": "GI50", "setting": "SF-268 CNS", "result": 0.118, "unit": "µM"}, {"measurement": "TGI", "setting": "SF-268 CNS", "result": "> 50", "unit": "µM"}, {"measurement": "GI50", "setting": "NCI/ADR-RES ovarian", "result": 0.106, "unit": "µM"}]}, {"smiles": "CCCC(=O)NNc1[nH]c(-c2ccc(OC)cc2)cc1C(=O)OCC", "values": [{"measurement": "GI50", "setting": "UACC-62 melanoma", "result": 16.4, "unit": "µM"}, {"measurement": "TGI", "setting": "UACC-62 melanoma", "result": 30, "unit": "µM"}, {"measurement": "GI50", "setting": "LOX IMVI melanoma", "result": 16.8, "unit": "µM"}, {"measurement": "TGI", "setting": "LOX IMVI melanoma", "result": 30.5, "unit": "µM"}, {"measurement": "GI50", "setting": "UACC-257 melanoma", "result": 1.6, "unit": "µM"}, {"measurement": "TGI", "setting": "UACC-257 melanoma", "result": 14.8, "unit": "µM"}, {"measurement": "GI50", "setting": "A498 renal", "result": 35.3, "unit": "µM"}, {"measurement": "TGI", "setting": "A498 renal", "result": "> 100", "unit": "µM"}, {"measurement": "GI50", "setting": "COLO 205 colon", "result": 2.39, "unit": "µM"}, {"measurement": "TGI", "setting": "COLO 205 colon", "result": 5.89, "unit": "µM"}, {"measurement": "GI50", "setting": "SR leukemia", "result": 28.3, "unit": "µM"}, {"measurement": "TGI", "setting": "SR leukemia", "result": "> 100", "unit": "µM"}, {"measurement": "GI50", "setting": "SF-268 CNS", "result": 14.6, "unit": "µM"}, {"measurement": "TGI", "setting": "SF-268 CNS", "result": 31, "unit": "µM"}, {"measurement": "GI50", "setting": "NCI/ADR-RES ovarian", "result": 19.2, "unit": "µM"}, {"measurement": "TGI", "setting": "NCI/ADR-RES ovarian", "result": 47.4, "unit": "µM"}]}, {"smiles": "Cc1ccc2sc3c(NCCCNCCO)nc4ccccc4c3c(=O)c2c1", "values": [{"measurement": "GI50", "setting": "UACC-62 melanoma", "result": 1.69, "unit": "µM"}, {"measurement": "TGI", "setting": "UACC-62 melanoma", "result": 3.14, "unit": "µM"}, {"measurement": "GI50", "setting": "LOX IMVI melanoma", "result": 1.49, "unit": "µM"}, {"measurement": "TGI", "setting": "LOX IMVI melanoma", "result": 2.94, "unit": "µM"}, {"measurement": "GI50", "setting": "UACC-257 melanoma", "result": 1.87, "unit": "µM"}, {"measurement": "TGI", "setting": "UACC-257 melanoma", "result": 3.76, "unit": "µM"}, {"measurement": "GI50", "setting": "A498 renal", "result": 1.44, "unit": "µM"}, {"measurement": "TGI", "setting": "A498 renal", "result": 3.49, "unit": "µM"}, {"measurement": "GI50", "setting": "COLO 205 colon", "result": 1.55, "unit": "µM"}, {"measurement": "TGI", "setting": "COLO 205 colon", "result": 3.19, "unit": "µM"}, {"measurement": "GI50", "setting": "SR leukemia", "result": 1.55, "unit": "µM"}, {"measurement": "TGI", "setting": "SR leukemia", "result": 4.07, "unit": "µM"}, {"measurement": "GI50", "setting": "SF-268 CNS", "result": 1.57, "unit": "µM"}, {"measurement": "TGI", "setting": "SF-268 CNS", "result": 3.2, "unit": "µM"}, {"measurement": "GI50", "setting": "NCI/ADR-RES ovarian", "result": 1.78, "unit": "µM"}, {"measurement": "TGI", "setting": "NCI/ADR-RES ovarian", "result": 3.51, "unit": "µM"}]}, {"smiles": "Cc1ccc(NC(=O)c2ccnc(N3CCCC3)c2)cc1-c1ccc(C(=O)NCC2CC2)cc1", "values": [{"measurement": "GI50", "setting": "UACC-62 melanoma", "result": "> 25", "unit": "µM"}, {"measurement": "TGI", "setting": "UACC-62 melanoma", "result": "> 25", "unit": "µM"}, {"measurement": "GI50", "setting": "LOX IMVI melanoma", "result": "> 25", "unit": "µM"}, {"measurement": "TGI", "setting": "LOX IMVI melanoma", "result": "> 25", "unit": "µM"}, {"measurement": "GI50", "setting": "UACC-257 melanoma", "result": "> 25", "unit": "µM"}, {"measurement": "TGI", "setting": "UACC-257 melanoma", "result": "> 25", "unit": "µM"}, {"measurement": "GI50", "setting": "A498 renal", "result": "> 25", "unit": "µM"}, {"measurement": "TGI", "setting": "A498 renal", "result": "> 25", "unit": "µM"}, {"measurement": "GI50", "setting": "COLO 205 colon", "result": "> 25", "unit": "µM"}, {"measurement": "TGI", "setting": "COLO 205 colon", "result": "> 25", "unit": "µM"}, {"measurement": "GI50", "setting": "SR leukemia", "result": 13, "unit": "µM"}, {"measurement": "TGI", "setting": "SR leukemia", "result": "> 25", "unit": "µM"}, {"measurement": "GI50", "setting": "SF-268 CNS", "result": "> 25", "unit": "µM"}, {"measurement": "TGI", "setting": "SF-268 CNS", "result": "> 25", "unit": "µM"}, {"measurement": "GI50", "setting": "NCI/ADR-RES ovarian", "result": "> 25", "unit": "µM"}, {"measurement": "TGI", "setting": "NCI/ADR-RES ovarian", "result": "> 25", "unit": "µM"}]}, {"smiles": "COc1cnc2c(c1)C(=O)c1c-2n(CCCN2CCN(C)CC2)c(=O)c2cc(Cl)ccc12", "values": [{"measurement": "GI50", "setting": "LOX IMVI melanoma", "result": 0.779, "unit": "µM"}, {"measurement": "TGI", "setting": "LOX IMVI melanoma", "result": 18.9, "unit": "µM"}, {"measurement": "GI50", "setting": "UACC-257 melanoma", "result": 4.04, "unit": "µM"}, {"measurement": "TGI", "setting": "UACC-257 melanoma", "result": 22.3, "unit": "µM"}, {"measurement": "GI50", "setting": "A498 renal", "result": 0.959, "unit": "µM"}, {"measurement": "TGI", "setting": "A498 renal", "result": 9.61, "unit": "µM"}, {"measurement": "GI50", "setting": "COLO 205 colon", "result": 1.3, "unit": "µM"}, {"measurement": "TGI", "setting": "COLO 205 colon", "result": "> 100", "unit": "µM"}, {"measurement": "GI50", "setting": "SR leukemia", "result": 0.584, "unit": "µM"}, {"measurement": "TGI", "setting": "SR leukemia", "result": 27.3, "unit": "µM"}, {"measurement": "GI50", "setting": "SF-268 CNS", "result": 4.75, "unit": "µM"}, {"measurement": "TGI", "setting": "SF-268 CNS", "result": 29.1, "unit": "µM"}, {"measurement": "GI50", "setting": "NCI/ADR-RES ovarian", "result": 0.979, "unit": "µM"}, {"measurement": "TGI", "setting": "NCI/ADR-RES ovarian", "result": 24.5, "unit": "µM"}]}, {"smiles": "ON(CCc1ccccn1)Cc1ccccc1", "values": [{"measurement": "TGI", "setting": "UACC-62 melanoma", "result": "> 100", "unit": "µM"}, {"measurement": "TGI", "setting": "LOX IMVI melanoma", "result": "> 100", "unit": "µM"}, {"measurement": "TGI", "setting": "UACC-257 melanoma", "result": "> 100", "unit": "µM"}, {"measurement": "TGI", "setting": "A498 renal", "result": "> 100", "unit": "µM"}, {"measurement": "TGI", "setting": "COLO 205 colon", "result": "> 100", "unit": "µM"}, {"measurement": "TGI", "setting": "SR leukemia", "result": "> 100", "unit": "µM"}, {"measurement": "TGI", "setting": "SF-268 CNS", "result": "> 100", "unit": "µM"}, {"measurement": "TGI", "setting": "NCI/ADR-RES ovarian", "result": "> 100", "unit": "µM"}]}]}
